From patent US9248149B2, “Methods for treating a neoplastic disease in a subject using inorganic selenium-containing compounds” (THE BOARD OF TRUSTEES OF THE LELAND STANFORD JUNIOR …, priority 2003, dated 2016)

Assays:
[1] = tested on: LAPC-4 prostate cancer cells; assay: Apoptosis as sub-G1 fraction by FACS of PI-stained cells; assay type: cell-based, human; conditions: for percentage of sub-G1 cells (apoptosis): 48 hours
Experimental: (§1) Cell Cultures and Treatments. LAPC-4 prostate cancer cells (provided by Dr. Charles Sawyers, UCLA) were cultured in phenol red free RPMI 1640 (Life Technologies, Rockville, Md.) supplemented with 10% fetal bovine serum (Gemini Bio-Products, Woodland, Calif.) at 37° C. in a humidified atmosphere with 5% CO2.
Detection of Apoptosis. Flow cytometry analysis (FACS) analysis of propidium iodide (PI)-stained cells was used to quantify the percentage of apoptotic cells as the fraction of cells with a hypodiploid amount of DNA (Sub-G1). Cells were fixed and permeabilized with 100% ice-cold ethanol at 4° C. overnight. The cells were resuspended in 500 μl of buffer (phosphate buffered saline (PBS), 5 mM EDTA) and incubated with 200 μg/ml RNase A for 30 min at room temperature and then 50 μg/ml PI for 10 min at room temperature. The cell cycle distribution was analyzed using Facstar flow cytometry (Becton-Dickinson, San Jose, Calif.). Cleavage of Caspase-3 as a marker of caspase-mediated apoptosis was also detected by immunoblot analysis (see below).

[2] = tested on: DU 145 prostate cancer cells; assay: GSH-reductase recycling assay, GSH:GSSG ratio; assay type: cell-based; conditions: 10 μM selenite, basal level 146.4±14.0
Experimental: DU 145 prostate cancer cells (American Type Culture Collection, Rockville, Md.) were cultured in RPMI 1640 (+phenol red) supplemented with 10% fetal bovine serum. When the cells reached 50% confluence the media was replaced and selenite was added at the noted concentrations.
(§2) Determination of Intracellular GSH and GSSG Content. The determination of intracellular GSH and GSSG content following exposure to selenite was performed using the GSH-reductase recycling assay (Vandeputte et al., Cell Biol Toxicol, 10: 415-421 (1994)). This assay measures the reaction of GSH with 5,5′-dithiobis(2-nitrobenzoic acid) (DTNB). […] The 96-well plate assay was prepared by mixing 20 μl of sample or known GSH standard, 20 μl of stock buffer, 200 μl of reaction buffer (1 mM 5,5′-dithiobis(2-nitrobenzoic acid (DTNB) and 0.34 mM nicotinamide adenine dinucleotide phosphate (NADPH) in stock buffer), and 40 μl of GSH reductase (8.5 U/ml). The reaction was recorded kinetically at 30-sec intervals for 6 min at a wavelength of 405 nm GSSG was measured following GSH derivatization with 2-vinylpyridine and triethanolamine. GSSG was measured as described above using known GSSG standards. The concentration of GSH and GSSG was expressed as nmol/mg of protein.

[3] = tested on: LAPC-4 prostate cancer cells; assay: MTS cell proliferation assay; assay type: cell-based, human; conditions: 48 hours
Experimental: as §1
Cell proliferation assay. Cells were seeded in 96-well plates (10,000 cells/well) and treated with selenite for 48 hours. Cell survival was assayed using the CellTiter 96 AQueous One Solution Cell Proliferation Assay (Promega, Madison, Wis.). The MTS tetrazolium solution was added directly to the wells, incubated at 37° C. for 3 hours, and then the absorbance was read at 490 nm with a 96 well plate reader (Vmax Kinetic Microplate Reader, Molecular Devices, Sunnyvale, Calif.).

DU 145 cells = assay: Clonogenic survival assay; assay type: cell-based; conditions: for SF2: normalized for killing from selenite alone, radiation alone 0.554; for surviving fraction, selenite alone: assessed at 17 days
Experimental: (§3) Clonogenic Survival Assays. In Examples 1-4 below, LAPC-4 cells were treated with or without selenite for 6 hours prior to receiving 2 Gy of ionizing radiation. In other Examples, LAPC-4 and DU 145 cells were treated with 10 μM selenite for 6 or 12 hours treatment with 2 or 5 Gy of γ-irradiation.
(§4) Following irradiation cells were trypsinized, counted, and seeded in triplicate into 60 mm dishes. At least two dilutions of cells were used for each treatment group. Plated cells were allowed to grow for 14 or 17 days before being stained with 0.25% crystal violet in 75% ethanol. Resulting colonies with greater than 50 cells were scored. The surviving fraction was calculated as the plating efficiency of treated cells divided by the plating efficiency of untreated cells. SF2 is the survival fraction of exponentially growing cells that were irradiated at the clinically relevant dose of 2 Gy. The SF2 enhancement ratio (SF2 ER) is defined here as the SF2 without treatment divided by the SF2 for cells treated with selenite.

LAPC-4 tumors = assay: Selenite and radiation combination therapy in mice with LAPC-4 tumors; assay type: in vivo
LAPC-4 cells [4] = assay: GSH-reductase recycling assay, intracellular GSH and GSSG; assay type: cell-based, human; conditions: 10 μM selenite
Experimental: Determination of Intracellular GSH and GSSG Content. The determination of intracellular GSH and GSSG content following exposure to selenite was performed using the GSH-reductase recycling assay (Vandeputte et al., Cell Biol Toxicol, 10: 415-421 (1994)). This assay measures the reaction of GSH with 5,5′-dithiobis(2-nitrobenzoic acid) (DTNB). Briefly, cells (floating and adherent) were rinsed in cold stock buffer (143 mM sodium phosphate, 6.3 mM EDTA, pH7.4), and lysed by repeated freeze thawing in 130 μl of 10 mM HCl. Following lysis a 10 μl sample was removed and used for protein determination. Proteins were precipitated on ice for 15 min with 30 μl of 6.5% sulfosalicyclic acid and centrifuged for 15 min at 2000×g and 4° C. The supernatants were collected and stored at −80° C. until assayed. The 96-well plate assay was prepared by mixing 20 μl of sample or known GSH standard, 20 μl of stock buffer, 200 μl of reaction buffer (1 mM 5,5′-dithiobis(2-nitrobenzoic acid (DTNB) and 0.34 mM nicotinamide adenine dinucleotide phosphate (NADPH) in stock buffer), and 40 μl of GSH reductase (8.5 U/ml). The reaction was recorded kinetically at 30-sec intervals for 6 min at a wavelength of 405 nm GSSG was measured following GSH derivatization with 2-vinylpyridine and triethanolamine. GSSG was measured as described above using known GSSG standards. The concentration of GSH and GSSG was expressed as nmol/mg of protein.

[5] = tested on: normal prostate cells (E-PZ-3); assay: GSH-reductase recycling assay, GSH:GSSG ratio; assay type: cell-based, human; conditions: 25 μM selenite, 48 hours
From the text: (§5) Primary prostate epithelial cell strains from normal prostate (PZ) and prostate cancer (CA) tissue were provided by Dr. Donna Peehl (Stanford University) using well established methods she has previously described (Peehl, Human prostatic epithelial cells. In: Culture of Epithelial Cells, 2nd edition, Freshney, R. I. and Freshney, M. G. (eds.), Wiley-Liss, Inc., N.Y., 171-194 (2002)). Three matched pairs of normal and cancer cell strains were available for study (E-PZ/CA-1, E-PZ/CA-2, and E-PZ/CA-3). Normal cell strains were obtained from a region of the prostate peripheral zone not involved in cancer. E-CA-1, E-CA-2, and E-CA-3 cell strains were derived from prostate carcinomas. Cells were treated at 50-70% confluence.
as §2, with “Content.” for “Content. The determination of intracellular GSH and GSSG content following exposure to selenite was performed using the GSH-reductase recycling assay (Vandeputte et al., Cell Biol Toxicol, 10: 415-421 (1994)). This assay measures the reaction of GSH with 5,5′-dithiobis(2-nitrobenzoic acid) (DTNB).”

[6] = tested on: prostate cancer cells (E-CA-3); assay: GSH-reductase recycling assay, GSH:GSSG ratio; assay type: cell-based, human; conditions: 25 μM selenite, 48 hours
From the text: as §5
as §2, with “Content.” for “Content. The determination of intracellular GSH and GSSG content following exposure to selenite was performed using the GSH-reductase recycling assay (Vandeputte et al., Cell Biol Toxicol, 10: 415-421 (1994)). This assay measures the reaction of GSH with 5,5′-dithiobis(2-nitrobenzoic acid) (DTNB).”

LAPC-4 cells [7] = assay: Clonogenic survival assay; assay type: cell-based, human
Experimental: as §3, §4

For `CCCCS(=N)(=O)CCC(N)C(=O)O` (centres unmarked) [BSO, buthionine sulfoximine, reference compound], the induction of apoptosis ([1]; BSO 500 μM for 72 hrs) was “did not induce significant apoptosis”.
With `O=[Se](O)O` [selenite, Sodium selenite] the “GSH:GSSG ratio” value ([2]; 6 hours) was 57.5±13.8, the “GSH:GSSG ratio” value ([2]; 12 hours) was 5.7±1.8 and the Cell proliferation ([3]; 10 μM selenite) was 53.3 % of control. The Cell proliferation ([3]; 25 μM selenite) was 33.4 % of control, the SF2 (DU 145 cells; 10 μM selenite 6 hr pre 2 Gy γ-irradiation) was 0.343 and the “SF2 ER” value (DU 145 cells; 10 μM selenite 6 hr pre radiation) was 1.62. For the same molecule, the SF2 (DU 145 cells; 10 μM selenite 12 hr pre 2 Gy γ-irradiation) was 0.199, the “SF2 ER” value (DU 145 cells; 10 μM selenite 12 hr pre radiation) was 2.78 and the “surviving fraction, selenite alone” value (DU 145 cells; 10 μM selenite for 6 hours) was 0.941. For the same molecule, the “surviving fraction, selenite alone” value (DU 145 cells; 10 μM selenite for 12 hours) was 0.409, the tolerability (LAPC-4 tumors; selenite treated mice) was “very well tolerated” and the weight loss (LAPC-4 tumors; selenite treated mice compared with local tumor irradiation alone) was “no significant weight loss”. The “percentage of sub-G1 cells (apoptosis)” value ([1]; 10 μM selenite) was 14.5%, the “percentage of sub-G1 cells (apoptosis)” value ([1]; 25 μM selenite) was 26.1% and the “decrease of GSH:GSSG ratio” value (LAPC-4 cells [4]; 6 hours) was 88.3%. The “GSH:GSSG ratio” value (LAPC-4 cells [4]; 6 hours, untreated 129.4±13.6) was 15.1±2.3, the “total GSH level” value (LAPC-4 cells [4]; 48 hours, basal level 52.1±5.6) was 11.8 ± 2.1 nmol/mg and the “decrease of GSH:GSSG ratio” value [5] was 41.1%. The “decrease of GSH:GSSG ratio” value [6] was 65.9%, the SF2 (LAPC-4 cells [7]; 10 μM selenite 6 hr pre 2 Gy γ-irradiation, normalized for killing from selenite alone, radiation alone 0.244) was 0.056 and the “SF2 ER” value (LAPC-4 cells [7]; 10 μM selenite 6 hr pre radiation, SF2 without treatment divided by SF2 with selenite) was 4.36. The “surviving fraction, selenite alone” value (LAPC-4 cells [7]; 10 μM selenite for 6 hours, no radiation) was 0.431±0.021.
